Reference: PMC11025159 (Journal of Translational Medicine, 2024)

Tests used:
[1] = Body weight, biochemical and haematological parameters in DHT-induced AGA mice (0.5% testosterone then topical treatment); format: in vivo, C57BL/6J mice; settings: for LYMPH: unit assumed
Experimental: The experiments were performed on C57BL/6 J and Athymic nude mice (NU/J Foxn1^nu) of 6–7 weeks of age obtained from Animal House Facility, CSIR-Indian Institute of Integrative Medicine (IIIM), Jammu, India. […] The animals were provided with ad libitum feed (standard pellet diet) and autoclaved RO water throughout the study. The body weight of mice was measured after seven days before treatment.
(§1) C57BL/6 J mice (male) were obtained from CSIR-IIIM Animal House at 7 weeks of age. We used a DHT-induced AGA mice model for this study. […] At the end of the experiment, skin samples were collected and preserved in 10% neutral buffered formalin for tissue sectioning and staining using haematoxylin and eosin (H&E). The histopathological examinations were performed under the 10× and 40× objectives of light microscope (Magnus, Mx21i).
Every two weeks during the experimental period, mice were anesthetized, and the blood samples were collected into tubes containing heparin sodium to detect the total and differential white blood cells, haemoglobin, red blood cell, platelet count, mean corpuscular haemoglobin, mean corpuscular volume, red blood cell volume, mean platelet volume, and analyzed using an automated haematology analyzer (Model: XT1800i; Make: Sysmex).
Every two weeks during the experimental period, mice and rats were anesthetized, and blood samples were collected into non-heparinized tubes and then centrifuged at 1000 rpm at 4 °C for 10 min to obtain the serum. The biochemical parameters, including total protein, aspartate aminotransferase, alanine aminotransferase, total protein, albumin, total bilirubin, direct bilirubin, glucose, total cholesterol, triglyceride, low-density lipoprotein, high-density lipoprotein, creatinine, and uric acid, were measured using an automatic biochemical analyzer (Model: EM360; Make: Erba Mannheim).

DHT-induced AGA mice = experiment: Hair regrowth in DHT-induced AGA mice model (topical, 28 days); format: in vivo, C57BL/6J mice
Experimental: as §1
Dorsal skin samples from C57BL/6J mice were shaved and collected for histological and molecular analyses on Days 7, 14, 21, and 28. The full-thickness skin tissue was fixed in a 10% neutral buffered formalin solution (Sigma) overnight and subsequently dehydrated for embedding in paraffin. Haematoxylin and eosin (H&E) staining was performed on the skin tissue, and digital photomicrographs were taken from the representative areas using light microscope (Magnus, Mx21i).
The quantification of anagen initiation was assessed by observing changes in the dorsal skin colour of C57BL/6 mice, a phenomenon closely linked to the onset of the anagen phase. Anagen quantification was done by employing threshold analysis on dorsal skin colouration using ImageJ. The darkening of the skin, attributed to melanogenesis, strongly correlates with the progression of anagen. This analysis is visually depicted as a heatmap using GraphPad Prism 9.5 Software.

CCS(=O)(=O)N1CC(CC#N)(n2cc(-c3ncnc4[nH]ccc34)cn2)C1 [Baricitinib, baricitinib, reference compound]
ALP ([1]; Day 21, 0.02 mg/Kg): 108 U/L
ALT/SGPT ([1]; Day 21, 0.02 mg/Kg): 74 U/L
AST/SGOT ([1]; Day 21, 0.02 mg/Kg): 143 U/L
Cholesterol ([1]; Day 21, 0.02 mg/Kg): 171 mg/dL
Creatine ([1]; Day 21, 0.02 mg/Kg): 0.72 mg/dL
HCT ([1]; Day 21, 0.02 mg/Kg): 45%
HDL ([1]; Day 21, 0.02 mg/Kg): 105 mg/dL
LDL ([1]; Day 21, 0.02 mg/Kg): 101 mg/dL
MCHC ([1]; Day 21, 0.02 mg/Kg): 28 g/dL
MCV ([1]; Day 21, 0.02 mg/Kg): 52 fL
NEUT ([1]; Day 21, 0.02 mg/Kg): 30.5%
PLT ([1]; Day 21, 0.02 mg/Kg): 946 103/μl
RBC ([1]; Day 21, 0.02 mg/Kg): 8.2 1012/l
Total protein ([1]; Day 21, 0.02 mg/Kg): 5.0 g/dL
Triglyceride ([1]; Day 21, 0.02 mg/Kg): 98 mg/dL
Urea ([1]; Day 21, 0.02 mg/Kg): 69 mg/dL
WBC ([1]; Day 21, 0.02 mg/Kg): 4.3 103/μl
LYMPH ([1]; Day 21, 0.02 mg/Kg): 67.4%
ALP ([1]; Day 21, 0.04 mg/Kg): 99 U/L
ALT/SGPT ([1]; Day 21, 0.04 mg/Kg): 64 U/L
AST/SGOT ([1]; Day 21, 0.04 mg/Kg): 98 U/L
Cholesterol ([1]; Day 21, 0.04 mg/Kg): 171 mg/dL
Creatine ([1]; Day 21, 0.04 mg/Kg): 0.69 mg/dL
HCT ([1]; Day 21, 0.04 mg/Kg): 43%
HDL ([1]; Day 21, 0.04 mg/Kg): 122 mg/dL
LDL ([1]; Day 21, 0.04 mg/Kg): 106 mg/dL
MCHC ([1]; Day 21, 0.04 mg/Kg): 29 g/dL
MCV ([1]; Day 21, 0.04 mg/Kg): 52 fL
NEUT ([1]; Day 21, 0.04 mg/Kg): 30.5%
PLT ([1]; Day 21, 0.04 mg/Kg): 1082 103/μl
RBC ([1]; Day 21, 0.04 mg/Kg): 8.6 1012/l
Total protein ([1]; Day 21, 0.04 mg/Kg): 4.9 g/dL
Triglyceride ([1]; Day 21, 0.04 mg/Kg): 139 mg/dL
Urea ([1]; Day 21, 0.04 mg/Kg): 54 mg/dL
WBC ([1]; Day 21, 0.04 mg/Kg): 3.6 103/μl
LYMPH ([1]; Day 21, 0.04 mg/Kg): 67.4%
ALP ([1]; Day 21, 0.1mg/Kg): 144 U/L
ALT/SGPT ([1]; Day 21, 0.1mg/Kg): 92 U/L
AST/SGOT ([1]; Day 21, 0.1mg/Kg): 104 U/L
Cholesterol ([1]; Day 21, 0.1mg/Kg): 173 mg/dL
Creatine ([1]; Day 21, 0.1mg/Kg): 0.48 mg/dL
HCT ([1]; Day 21, 0.1mg/Kg): 48%
HDL ([1]; Day 21, 0.1mg/Kg): 108 mg/dL
LDL ([1]; Day 21, 0.1mg/Kg): 100 mg/dL
MCHC ([1]; Day 21, 0.1mg/Kg): 29 g/dL
MCV ([1]; Day 21, 0.1mg/Kg): 50 fL
NEUT ([1]; Day 21, 0.1mg/Kg): 26.8%
PLT ([1]; Day 21, 0.1mg/Kg): 1149 103/μl
RBC ([1]; Day 21, 0.1mg/Kg): 9.6 1012/l
Total protein ([1]; Day 21, 0.1mg/Kg): 5.0 g/dL
Triglyceride ([1]; Day 21, 0.1mg/Kg): 119 mg/dL
Urea ([1]; Day 21, 0.1mg/Kg): 51 mg/dL
WBC ([1]; Day 21, 0.1mg/Kg): 6.4 103/μl
LYMPH ([1]; Day 21, 0.1mg/Kg): 71.3%
ALP ([1]; Day 28, 0.02 mg/Kg): 159 U/L
ALT/SGPT ([1]; Day 28, 0.02 mg/Kg): 71 U/L
AST/SGOT ([1]; Day 28, 0.02 mg/Kg): 129 U/L
Cholesterol ([1]; Day 28, 0.02 mg/Kg): 213 mg/dL
Creatine ([1]; Day 28, 0.02 mg/Kg): 0.16 mg/dL
HCT ([1]; Day 28, 0.02 mg/Kg): 48.0%
HDL ([1]; Day 28, 0.02 mg/Kg): 173 mg/dL
HGB ([1]; Day 28, 0.02 mg/Kg): 15 g/dL
LDL ([1]; Day 28, 0.02 mg/Kg): 98 mg/dL
MCHC ([1]; Day 28, 0.02 mg/Kg): 30.0 g/dL
MCV ([1]; Day 28, 0.02 mg/Kg): 62 fL
PLT ([1]; Day 28, 0.02 mg/Kg): 1724 103/μl
RBC ([1]; Day 28, 0.02 mg/Kg): 7.8 106/μl
Total protein ([1]; Day 28, 0.02 mg/Kg): 5.8 g/dL
Triglyceride ([1]; Day 28, 0.02 mg/Kg): 90 mg/dL
Urea ([1]; Day 28, 0.02 mg/Kg): 60 mg/dL
WBC ([1]; Day 28, 0.02 mg/Kg): 6.3 103/μl
ALP ([1]; Day 28, 0.04 mg/Kg): 174 U/L
ALT/SGPT ([1]; Day 28, 0.04 mg/Kg): 88 U/L
AST/SGOT ([1]; Day 28, 0.04 mg/Kg): 123 U/L
Cholesterol ([1]; Day 28, 0.04 mg/Kg): 182 mg/dL
Creatine ([1]; Day 28, 0.04 mg/Kg): 0.11 mg/dL
HCT ([1]; Day 28, 0.04 mg/Kg): 48.0%
HDL ([1]; Day 28, 0.04 mg/Kg): 143 mg/dL
HGB ([1]; Day 28, 0.04 mg/Kg): 14 g/dL
LDL ([1]; Day 28, 0.04 mg/Kg): 85 mg/dL
MCHC ([1]; Day 28, 0.04 mg/Kg): 29.0 g/dL
MCV ([1]; Day 28, 0.04 mg/Kg): 60 fL
PLT ([1]; Day 28, 0.04 mg/Kg): 1427 103/μl
RBC ([1]; Day 28, 0.04 mg/Kg): 8.0 106/μl
Total protein ([1]; Day 28, 0.04 mg/Kg): 6.3 g/dL
Triglyceride ([1]; Day 28, 0.04 mg/Kg): 123 mg/dL
Urea ([1]; Day 28, 0.04 mg/Kg): 66 mg/dL
WBC ([1]; Day 28, 0.04 mg/Kg): 3.1 103/μl
ALP ([1]; Day 28, 0.1mg/Kg): 184 U/L
ALT/SGPT ([1]; Day 28, 0.1mg/Kg): 74 U/L
AST/SGOT ([1]; Day 28, 0.1mg/Kg): 86 U/L
Cholesterol ([1]; Day 28, 0.1mg/Kg): 164 mg/dL
Creatine ([1]; Day 28, 0.1mg/Kg): 0.13 mg/dL
HCT ([1]; Day 28, 0.1mg/Kg): 43.0%
HDL ([1]; Day 28, 0.1mg/Kg): 134 mg/dL
HGB ([1]; Day 28, 0.1mg/Kg): 14 g/dL
LDL ([1]; Day 28, 0.1mg/Kg): 78 mg/dL
MCHC ([1]; Day 28, 0.1mg/Kg): 33.0 g/dL
MCV ([1]; Day 28, 0.1mg/Kg): 67 fL
PLT ([1]; Day 28, 0.1mg/Kg): 1394 103/μl
RBC ([1]; Day 28, 0.1mg/Kg): 6.4 106/μl
Total protein ([1]; Day 28, 0.1mg/Kg): 6.2 g/dL
Triglyceride ([1]; Day 28, 0.1mg/Kg): 72 mg/dL
Urea ([1]; Day 28, 0.1mg/Kg): 53 mg/dL
WBC ([1]; Day 28, 0.1mg/Kg): 3.9 103/μl
H&E skin histopathology finding (DHT-induced AGA mice; 0.04mg/kg, Days 7, 14, 21, 28): Minimal degree of epidermal thickening with increased distinct hair follicles
hair follicle phase (histopathology) (DHT-induced AGA mice; skin samples days 7, 14, 21, 28): at least in the anagen IIIc-IV phase
entry into the anagen phase (DHT-induced AGA mice; topical once a day in presence of testosterone): rapid entry into the anagen phase within seven days of treatment
